{"source": "patent US20120264803A1", "about": "“METHOD FOR PREDICTING THERAPEUTIC EFFECTS OF CHEMOTHERAPY ON HEPATOCELLULAR CARCINOMA PATIENTS” (priority 2009, published 2012)", "key": {"[1]": {"system": "hepatocellular carcinoma patients treated with TACE", "assay": "Comparative clinical study of TSU-68 administration vs non-administration after TACE (progression-free survival)", "assay_type": "in vivo, human", "method": "A comparative clinical study was conducted for the TSU-68 administration group and the TSU-68 non-administration group consisting of cases diagnosed as hepatocellular carcinoma that were impossible to treat with hepatectomy and PAT and had been treated with TACE. The antitumor agent used herein for TACE was epirubicin.\nThe subject cases were randomly assigned to the TSU-68 administration group and the TSU-68 non-administration group. TSU-68 administration was initiated for cases assigned to the TSU-68 administration group within 2 weeks after TACE. TSU-68 was administered orally at a dose of 200 mg per administration twice daily after breakfast and dinner on consecutive days. No further cancer treatment was given to the TSU-68 non-administration group after TACE and thus only follow-up observation was carried out.\nProgression-free survival was defined as survival within the period from the day of TACE designated as the initial date of reckoning to any of dates on which the following events was observed, whichever came first.\n1. Date on which the presence of progressive disease (hereinafter referred to as “PD”) was confirmed as a result of assessment of best overall response (date of testing). 2. Date on which a test subject died for any reason (date of death). 3. Date on which a test subject was assessed to have experienced clinically obvious deterioration of the disease or to be in need of post-TACE treatment even without confirmation of PD upon assessment of best overall response (date of assessment).\nBest overall response was evaluated by measuring tumor diameters by CT and assaying tumor markers (AFP, PIVKA-II, and AFP-L3 fractions) according to New Guideline to Evaluate the Response to Treatment in Solid Tumor (hereinafter referred to as “RECIST”) (J Natl Cancer Inst 92: 205, 2000).\nThe expression levels of PDGF-BB and IL-8 in blood obtained before TSU-68 administration after TACE were determined using ELISA Kits as described below.\nCut-off points were determined by the statistical analysis technique described below based on the quantified PDGF-BB and IL-8 levels.\n(1) The cut-off point for dividing patients into the PDGF-BB hyperexpression group and the PDGF-BB underexpression group was calculated so that the difference between the 6-month-progression-free survival rate for the TSU-68 administration group and the 6-month-progression-free survival rate for the TSU-68 non-administration group was 20% or more for patients in the PDGF-BB hyperexpression group. The cut-off point was 1480 to 2030 pg/ml. (2) The cut-off point for dividing patients into the PDGF-BB hyperexpression group and the PDGF-BB underexpression group was calculated so that the hazard ratio of the TSU-68 administration group to the TSU-68 non-administration group was 0.6 or less for patients in the PDGF-BB hyperexpression group. The cut-off point was 1740 to 1960 pg/ml. (3) The cut-off point for dividing patients into the IL-8 hyperexpression group and the IL-8 underexpression group was calculated so that the difference between the 6-month-progression-free survival rate for the TSU-68 administration group and the 6-month-progression-free survival rate for the TSU-68 non-administration group was 20% or more for cases in the IL-8 hyperexpression group. The cut-off point was 2.1 to 6.6 pg/ml. (4) The cut-off point for dividing patients into the IL-8 hyperexpression group and the IL-8 underexpression group was calculated so that the hazard ratio of the TSU-68 administration group to the TSU-68 non-administration group was 0.6 or less for cases in the IL-8 hyperexpression group. The cut-off point was 2.1 to 10.5 pg/ml.\nThe PDGF-BB hyperexpression group, the PDGF-BB underexpression group, the IL-8 hyperexpression group, and the IL-8 underexpression group were subjected to survival time analysis of the TSU-68 administration group and the TSU-68 non-administration group with the use of the cut-off points calculated in Example 1."}, "[2]": {"system": "human cancer cell lines subcutaneously implanted (lung cancer, colon cancer, ovarian cancer)", "details": "oral administration of TSU-68 alone, Non-Patent Literature 3; cited from earlier work"}, "[3]": {"details": "IL-8 hyperexpression group, cut-off 2.1 pg/ml, vs non-administration"}, "[4]": {"details": "IL-8 hyperexpression group, cut-off 6.6 pg/ml, vs non-administration"}, "[5]": {"details": "IL-8 hyperexpression group, cut-off 10.5 pg/ml, vs non-administration"}, "[6]": {"details": "IL-8 underexpression group, cut-off 6.6 pg/ml, vs non-administration"}, "[7]": {"details": "IL-8 underexpression group, cut-off 10.5 pg/ml, vs non-administration"}, "[8]": {"details": "PDGF-BB hyperexpression group, cut-off 1480 pg/ml, vs non-administration"}, "[9]": {"details": "PDGF-BB hyperexpression group, cut-off 1740 pg/ml, vs non-administration"}, "[10]": {"details": "PDGF-BB hyperexpression group, cut-off 1960 pg/ml, vs non-administration"}, "[11]": {"details": "PDGF-BB hyperexpression group, cut-off 2030 pg/ml, vs non-administration"}, "[12]": {"details": "PDGF-BB underexpression group, cut-off 1480 pg/ml, vs non-administration"}, "[13]": {"details": "PDGF-BB underexpression group, cut-off 1740 pg/ml, vs non-administration"}, "[14]": {"details": "PDGF-BB underexpression group, cut-off 1960 pg/ml, vs non-administration"}, "[15]": {"details": "PDGF-BB underexpression group, cut-off 2030 pg/ml, vs non-administration"}, "[16]": {"details": "patients having high PDGF-BB or IL-8 blood levels (summary over cut-off points), vs non-administration"}, "[17]": {"details": "stratified using reported VCAM cut-off point 2370 pg/ml (data not shown), vs non-administration"}}}
{"molecule": "Cc1[nH]c(/C=C2\\C(=O)Nc3ccccc32)c(C)c1CCC(=O)O", "note": "[TSU-68, (Z)-5-[(1,2-dihydro-2-oxo-3H-indol-3-ylidene)methyl]2,4-dimethyl-1H-pyrro 1-3-propanoic acid]", "values": [{"measurement": "6-month-progression-free survival rates", "setting": "[1]; IL-8 hyperexpression group, cut-off 2.1 pg/ml", "value": 48, "unit": "%"}, {"measurement": "Difference between 6-month-progression-free survival rate", "setting": "[1]; [3]", "value": 23, "unit": "%"}, {"measurement": "Hazard ratio", "setting": "[1]; [3]", "value": 0.51}, {"measurement": "6-month-progression-free survival rate", "setting": "[1]; IL-8 hyperexpression group, cut-off 6.6 pg/ml", "value": 50, "unit": "%"}, {"measurement": "Difference between 6-month-progression-free survival rates", "setting": "[1]; [4]", "value": 20, "unit": "%"}, {"measurement": "Hazard ratio", "setting": "[1]; [4]", "value": 0.51}, {"measurement": "6-month-progression-free survival rate", "setting": "[1]; IL-8 hyperexpression group, cut-off 10.5 pg/ml", "value": 56, "unit": "%"}, {"measurement": "Difference between 6-month-progression-free survival rates", "setting": "[1]; [5]", "value": 27, "unit": "%"}, {"measurement": "Hazard ratio", "setting": "[1]; [5]", "value": 0.51}, {"measurement": "6-month-progression-free survival rates", "setting": "[1]; IL-8 underexpression group, cut-off 2.1 pg/ml", "value": 0, "unit": "%"}, {"measurement": "Difference between 6-month-progression-free survival rate", "setting": "[1]; IL-8 underexpression group, cut-off 2.1 pg/ml, vs non-administration", "value": "−57", "unit": "%"}, {"measurement": "6-month-progression-free survival rate", "setting": "[1]; IL-8 underexpression group, cut-off 6.6 pg/ml", "value": 39, "unit": "%"}, {"measurement": "Difference between 6-month-progression-free survival rates", "setting": "[1]; [6]", "value": 9, "unit": "%"}, {"measurement": "Hazard ratio", "setting": "[1]; [6]", "value": 0.92}, {"measurement": "6-month-progression-free survival rate", "setting": "[1]; IL-8 underexpression group, cut-off 10.5 pg/ml", "value": 41, "unit": "%"}, {"measurement": "Difference between 6-month-progression-free survival rates", "setting": "[1]; [7]", "value": 11, "unit": "%"}, {"measurement": "Hazard ratio", "setting": "[1]; [7]", "value": 0.79}, {"measurement": "6-month-progression-free survival rate", "setting": "[1]; PDGF-BB hyperexpression group, cut-off 1480 pg/ml", "value": 52, "unit": "%"}, {"measurement": "Difference between 6-month-progression-free survival rates", "setting": "[1]; [8]", "value": 21, "unit": "%"}, {"measurement": "Hazard ratio", "setting": "[1]; [8]", "value": 0.64}, {"measurement": "6-month-progression-free survival rate", "setting": "[1]; PDGF-BB hyperexpression group, cut-off 1740 pg/ml", "value": 52, "unit": "%"}, {"measurement": "Difference between 6-month-progression-free survival rates", "setting": "[1]; [9]", "value": 25, "unit": "%"}, {"measurement": "Hazard ratio", "setting": "[1]; [9]", "value": 0.59}, {"measurement": "6-month-progression-free survival rate", "setting": "[1]; PDGF-BB hyperexpression group, cut-off 1960 pg/ml", "value": 52, "unit": "%"}, {"measurement": "Difference between 6-month-progression-free survival rates", "setting": "[1]; [10]", "value": 25, "unit": "%"}, {"measurement": "Hazard ratio", "setting": "[1]; [10]", "value": 0.55}, {"measurement": "6-month-progression-free survival rate", "setting": "[1]; PDGF-BB hyperexpression group, cut-off 2030 pg/ml", "value": 52, "unit": "%"}, {"measurement": "Difference between 6-month-progression-free survival rates", "setting": "[1]; [11]", "value": 24, "unit": "%"}, {"measurement": "Hazard ratio", "setting": "[1]; [11]", "value": 0.62}, {"measurement": "6-month-progression-free survival rate", "setting": "[1]; PDGF-BB underexpression group, cut-off 1480 pg/ml", "value": 25, "unit": "%"}, {"measurement": "Difference between 6-month-progression-free survival rates", "setting": "[1]; [12]", "value": 2, "unit": "%"}, {"measurement": "Hazard ratio", "setting": "[1]; [12]", "value": 0.73}, {"measurement": "6-month-progression-free survival rate", "setting": "[1]; PDGF-BB underexpression group, cut-off 1740 pg/ml", "value": 40, "unit": "%"}, {"measurement": "Difference between 6-month-progression-free survival rates", "setting": "[1]; [13]", "value": 2, "unit": "%"}, {"measurement": "Hazard ratio", "setting": "[1]; [13]", "value": 0.85}, {"measurement": "6-month-progression-free survival rate", "setting": "[1]; PDGF-BB underexpression group, cut-off 1960 pg/ml", "value": 40, "unit": "%"}, {"measurement": "Difference between 6-month-progression-free survival rates", "setting": "[1]; [14]", "value": 7, "unit": "%"}, {"measurement": "Hazard ratio", "setting": "[1]; [14]", "value": 0.84}, {"measurement": "6-month-progression-free survival rate", "setting": "[1]; PDGF-BB underexpression group, cut-off 2030 pg/ml", "value": 42, "unit": "%"}, {"measurement": "Difference between 6-month-progression-free survival rates", "setting": "[1]; [15]", "value": 10, "unit": "%"}, {"measurement": "Hazard ratio", "setting": "[1]; [15]", "value": 0.75}, {"measurement": "6-month-progression-free survival rate", "setting": "[1]; all cases, TSU-68 200 mg orally twice daily after TACE", "value": 47, "unit": "%"}, {"measurement": "Hazard ratio", "setting": "[1]; all cases, TSU-68 administration to non-administration group", "value": 0.69}, {"measurement": "Difference between 6-month-progression-free survival rates", "setting": "[1]; all cases, TSU-68 administration vs non-administration group", "value": 18, "unit": "%"}, {"measurement": "Difference between 6-month-progression-free survival rates", "setting": "[1]; [16]", "value": "22% to 27"}, {"measurement": "Hazard ratio", "setting": "[1]; [16]", "value": "0.51 to 0.68"}, {"measurement": "Difference between 6-month-progression-free survival rates", "setting": "[1]; [17]", "value": "< 20", "unit": "%"}, {"measurement": "Hazard ratio", "setting": "[1]; [17]", "value": "> 0.6"}, {"measurement": "antitumor effects (tumor growth inhibition)", "setting": "[2]", "value": "effective for inhibiting tumor growth"}]}
